The test system of the experiment is 817829-284-R-J1-PDC complex spheroids, viability. The experiment in a line: Anticancer human tumor 817829-284-R-J1-PDC patient-derived colon adenocarcinoma cell line growth inhibition [CLK]. Conditions: for viability, T/C: stronger effect = lower value. The method in brief: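 Patient-derived tumor cells grown as complex spheroids with HUVEC endothelial cells and mesenchymal stem cells, treated with drug combinations. Concentrations descend in half-log steps from near clinical Cmax, or from 10 microM if Cmax unknown.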

The mark [1] stands for this setting: curve of first compound, second compound 0.0316 µM.
Setting [2] is: curve of first compound, second compound 0.1 µM.
The mark [3] stands for this setting: curve of first compound, second compound 0.316 µM.
Where [4] appears, read: curve of first compound, second compound 1 µM.
Where [5] appears, read: curve of first compound, second compound 3.16 µM.
[6] abbreviates: curve of first compound, second compound 10 µM.
Setting [7] is: second compound 0.0316 µM, first compound 0.00316 µM.
[8] abbreviates: second compound 0.0316 µM, first compound 0.01 µM.
The mark [9] stands for this setting: second compound 0.0316 µM, first compound 0.0316 µM.
Where [10] appears, read: second compound 0.0316 µM, first compound 0.1 µM.
The mark [11] stands for this setting: second compound 0.1 µM, first compound 0.00316 µM.
The mark [12] stands for this setting: second compound 0.1 µM, first compound 0.01 µM.
[13] abbreviates: second compound 0.1 µM, first compound 0.0316 µM.
Where [14] appears, read: second compound 0.1 µM, first compound 0.1 µM.
The mark [15] stands for this setting: second compound 0.316 µM, first compound 0.00316 µM.
Setting [16] is: second compound 0.316 µM, first compound 0.01 µM.
[17] abbreviates: second compound 0.316 µM, first compound 0.0316 µM.
Setting [18] is: second compound 0.316 µM, first compound 0.1 µM.
Where [19] appears, read: second compound 1 µM, first compound 0.00316 µM.
Setting [20] is: second compound 1 µM, first compound 0.01 µM.
Setting [21] is: second compound 1 µM, first compound 0.0316 µM.
Where [22] appears, read: second compound 1 µM, first compound 0.1 µM.
The mark [23] stands for this setting: second compound 3.16 µM, first compound 0.00316 µM.
The mark [24] stands for this setting: second compound 3.16 µM, first compound 0.01 µM.
Where [25] appears, read: second compound 3.16 µM, first compound 0.0316 µM.
[26] abbreviates: second compound 3.16 µM, first compound 0.1 µM.
Where [27] appears, read: second compound 10 µM, first compound 0.00316 µM.
The mark [28] stands for this setting: second compound 10 µM, first compound 0.01 µM.
[29] abbreviates: second compound 10 µM, first compound 0.0316 µM.
[30] abbreviates: second compound 10 µM, first compound 0.1 µM.

Among the data in PubChem BioAssay AID2060599 (Molecular Pharmacology Branch, DTP, NCI, 2025) are viability, T/C and IC50 values, retold here.

Each structure is given as a SMILES string. Several values for one entry are separate records, joined by “and”; a condition that tells them apart may be missing. Equal values may be shown once.
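Further: spheroids exposed to the agents for seven days before readout.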

Broadly, the viability, T/C is the result in the treated group divided by that in the control group, in per cent. By IC50 is commonly meant the concentration needed to halve the response being measured. As to `CNC(=O)c1ccc(Nc2nc(OC3CCCC3)c3c(-c4ccc5nc(C)oc5c4)c[nH]c3n2)c(OC)c1`, the viability, T/C by setting is: (compound 0.0316 µM) 33.6% [middle of 8 runs]; (compound 0.1 µM) 28.2% [middle of 8 runs]; (compound 0.316 µM) 26.3% [middle of 8 runs]; (compound 1 µM) 24.2% [middle of 8 runs]; (compound 3.16 µM) 20.1% [middle of 8 runs]; (compound 10 µM) 23.3% [middle of 8 runs]. The IC50 (compound alone, run of 08/15/2023) is under 31.6 nM.

Consider `O=c1[nH]cc(F)c(=O)[nH]1`, for which the viability, T/C (compound 0.0316 µM) was 66% and 85.8%; the viability, T/C (compound 0.1 µM) is 74.9% and 79.8%; the viability, T/C (compound 0.316 µM) is 98.9% and 85%; the viability, T/C (compound 1 µM) was 67.1% and 46.5%; the viability, T/C (compound 3.16 µM) is 63.9% and 53.2%; the viability, T/C (compound 10 µM) was 39.6% and 38%. The IC50 (curve of compound) is 5960 nM and 898 nM.

`CC(C)CC(NC(=O)C(Cc1ccccc1)NC(=O)c1cnccn1)B(O)O` (stereo unspecified): the viability, T/C (compound 0.000949 µM) is 80.8% and 93.1%; the viability, T/C (compound 0.003 µM) is 4.56% and 1.33%; the viability, T/C (compound 0.00949 µM) is 0.1% and 0.36%; the viability, T/C (compound 0.03 µM) is 0.16% and 0.15%; the viability, T/C (compound 0.0949 µM) was 0.05% and 0.24%; the viability, T/C (compound 0.3 µM) was 0.08% and 0.2%. In addition, for the setting “curve of compound”, the IC50 is 1.51 nM and 1.63 nM.

Turning to `COc1c(OCCCN2CCOCC2)ccc2c3n(c(=NC(=O)c4cnc(N)nc4)nc12)CCN3` + CNC(=O)c1ccc(Nc2nc(OC3CCCC3)c3c(-c4ccc5nc(C)oc5c4)c[nH]c3n2)c(OC)c1, the IC50 is 33.8 nM under setting [1]; under 3.16 nM under setting [2]; under 3.16 nM under setting [3]; under 3.16 nM under setting [4]; under 3.16 nM under setting [5]; under 3.16 nM under setting [6]. Moreover, the viability, T/C runs as follows: under setting [7], 39.8%; under setting [8], 41.3%; under setting [9], 74.9%; under setting [10], 19.1%; (second compound 0.0316 µM, first compound 0.316 µM) 4.03%; (second compound 0.0316 µM, first compound 1 µM) 1.87%. The viability, T/C is 24% under setting [11]; 21% under setting [12]; 15.8% under setting [13]; 9.46% under setting [14]; 3.69% (second compound 0.1 µM, first compound 0.316 µM); 1.76% (second compound 0.1 µM, first compound 1 µM). For the same compound, the viability, T/C is 20.6% under setting [15]; 22% under setting [16]; 18.4% under setting [17]; 9.72% under setting [18]; 3.22% (second compound 0.316 µM, first compound 0.316 µM); 2.08% (second compound 0.316 µM, first compound 1 µM). Moreover, the viability, T/C is 31.5% under setting [19]; 20.5% under setting [20]; 11.6% under setting [21]; 9.58% under setting [22]; 2.07% (second compound 1 µM, first compound 0.316 µM); 1.92% (second compound 1 µM, first compound 1 µM). For the same compound, the viability, T/C is 26.7% under setting [23]; 24% under setting [24]; 11.9% under setting [25]; 5.77% under setting [26]; 2.1% (second compound 3.16 µM, first compound 0.316 µM); 1.82% (second compound 3.16 µM, first compound 1 µM). The viability, T/C reads like this: under setting [27], 19.7%; under setting [28], 16%; under setting [29], 19.1%; under setting [30], 6.5%; (second compound 10 µM, first compound 0.316 µM) 6.46%; (second compound 10 µM, first compound 1 µM) 1.67%.

As for `CCc1c2c(nc3ccc(O)cc13)-c1cc3c(c(=O)n1C2)COC(=O)[C@]3(O)CC`, the viability, T/C (compound 0.00316 µM) was 23.1% and 29.4%; the viability, T/C (compound 0.01 µM) is 17.5% and 16.5%; the viability, T/C (compound 0.0316 µM) was 13.9% and 16.5%; the viability, T/C (compound 0.1 µM) is 9.42% and 10.3%; the viability, T/C (compound 0.316 µM) is 6.24% and 7.57%; the viability, T/C (compound 1 µM) is 3.66% and 4.31%. For the same compound, the IC50 (curve of compound) was under 3.16 nM.

Consider `COc1c(OCCCN2CCOCC2)ccc2c3n(c(=NC(=O)c4cnc(N)nc4)nc12)CCN3`, for which the viability, T/C (compound 0.00316 µM) was 96% and 133%; the viability, T/C (compound 0.01 µM) is 52% and 68.5%; the viability, T/C (compound 0.0316 µM) was 29% and 55.5%; the viability, T/C (compound 0.1 µM) is 18.8% and 16.3%; the viability, T/C (compound 0.316 µM) was 7.17% and 4.92%; the viability, T/C (compound 1 µM) was 2.06% and 2.01%. The IC50 (curve of compound) is 11.9 nM and 24.8 nM.

As to `CCCS(=O)(=O)Nc1ccc(F)c(C(=O)c2c[nH]c3ncc(-c4ccc(Cl)cc4)cc23)c1F`, the viability, T/C (compound 0.0316 µM) was 86.7% and 79.4%; the viability, T/C (compound 0.1 µM) was 48.8% and 64.2%; the viability, T/C (compound 0.316 µM) was 66% and 89%; the viability, T/C (compound 1 µM) is 54.1% and 77%; the viability, T/C (compound 3.16 µM) was 52.5% and 59.8%; the viability, T/C (compound 10 µM) was 25.3% and 16.9%. Moreover, the IC50 (curve of compound) is 1210 nM and 4110 nM.

With `Cn1ncnc1[C@H]1c2n[nH]c(=O)c3cc(F)cc(c23)N[C@@H]1c1ccc(F)cc1` + CNC(=O)c1ccc(Nc2nc(OC3CCCC3)c3c(-c4ccc5nc(C)oc5c4)c[nH]c3n2)c(OC)c1, the IC50 under setting [1] was under 0.316 nM; the concentration for half-maximal inhibition (IC50) under setting [2] is under 0.316 nM; the IC50 under setting [3] was under 0.316 nM; the IC50 under setting [4] is under 0.316 nM; the IC50 under setting [5] is under 0.316 nM; the IC50 under setting [6] is under 0.316 nM. The viability, T/C was 26.6% (second compound 0.0316 µM, first compound 0.000316 µM); 36.8% (second compound 0.0316 µM, first compound 0.001 µM); 27.3% under setting [7]; 31.1% under setting [8]; 25.3% under setting [9]; 23.4% under setting [10]. Besides, the viability, T/C by setting is: (second compound 0.1 µM, first compound 0.000316 µM) 20.5%; (second compound 0.1 µM, first compound 0.001 µM) 21.1%; under setting [11], 24.7%; under setting [12], 23.5%; under setting [13], 22.3%; under setting [14], 18.2%. Further, the viability, T/C reads like this: (second compound 0.316 µM, first compound 0.000316 µM) 24.1%; (second compound 0.316 µM, first compound 0.001 µM) 17.5%; under setting [15], 20.2%; under setting [16], 21.6%; under setting [17], 18.6%; under setting [18], 15.3%. The viability, T/C reads like this: (second compound 1 µM, first compound 0.000316 µM) 18.1%; (second compound 1 µM, first compound 0.001 µM) 20.1%; under setting [19], 14.9%; under setting [20], 17.3%; under setting [21], 22%; under setting [22], 12.1%. The viability, T/C is 24.5% (second compound 3.16 µM, first compound 0.000316 µM); 19.9% (second compound 3.16 µM, first compound 0.001 µM); 27.6% under setting [23]; 14.3% under setting [24]; 16.7% under setting [25]; 15.8% under setting [26]. Besides, the viability, T/C is, setting by setting: (second compound 10 µM, first compound 0.000316 µM) 16.8%; (second compound 10 µM, first compound 0.001 µM) 13.4%; under setting [27], 21.9%; under setting [28], 18.4%; under setting [29], 16%; under setting [30], 18.1%.
